In assay [1] the target is human RORγt ligand binding domain (RORγt LBD) (Homo sapiens (Human), UniProt P51449). The experiment in a line: RORγt ThermoFluor® assay (thermal shift binding). The following applies: read-out: ThermoFluor® Assay, Kd. The procedure, abridged: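 His-tagged human RORγt LBD (0.065 mg/mL) with 60 μM 1,8-ANS in 100 mM Hepes pH 7.0, 10 mM NaCl, 2.5 mM GSH, 0.002% Tween-20 was heated at 1 °C/min.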
(DSF heats the sample and reads unfolding from a dye or from intrinsic fluorescence.)

In another assay the target is full-length human RORγt (Homo sapiens (Human), UniProt P51449). The experiment in a line: RORγt (full-length human) reporter assay, Conditions B or C. The assay is classed as cell-based. The following applies: for RORγt (FL) Reporter Assay B or C, % inhibition (value marked *): marked *: footnote not given; for pIC50: read-out: RORγt (FL) Reporter Assay B or C, IC50; for inhibition at 3 µM: at 3 μM compound concentration. The procedure, abridged: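 HEK293T cells transiently co-transfected with GAL4-DBD–full-length human RORγt (nt 142-1635, NM_001001523.1) plus GAL4-firefly and CMV-Renilla luciferase reporters; compounds added 4-6 h post-transfection for 16-20 h in 1.3% FBS, 0.1% DMSO. Firefly signal normalized to DMSO and saturating reference compound, then to Renilla; IC50 from concentration plots.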

Setting [2] is: read-out: RORγt (FL) Reporter Assay B or C, % inhibition.

Structures are written as SMILES. pIC50, pKd: −log10 of the molar value. Read-outs that look alike come from different tables or passages of the source.

Chain of full-length human RORγt (P51449 other isoform, or with tags, fused parts or gaps): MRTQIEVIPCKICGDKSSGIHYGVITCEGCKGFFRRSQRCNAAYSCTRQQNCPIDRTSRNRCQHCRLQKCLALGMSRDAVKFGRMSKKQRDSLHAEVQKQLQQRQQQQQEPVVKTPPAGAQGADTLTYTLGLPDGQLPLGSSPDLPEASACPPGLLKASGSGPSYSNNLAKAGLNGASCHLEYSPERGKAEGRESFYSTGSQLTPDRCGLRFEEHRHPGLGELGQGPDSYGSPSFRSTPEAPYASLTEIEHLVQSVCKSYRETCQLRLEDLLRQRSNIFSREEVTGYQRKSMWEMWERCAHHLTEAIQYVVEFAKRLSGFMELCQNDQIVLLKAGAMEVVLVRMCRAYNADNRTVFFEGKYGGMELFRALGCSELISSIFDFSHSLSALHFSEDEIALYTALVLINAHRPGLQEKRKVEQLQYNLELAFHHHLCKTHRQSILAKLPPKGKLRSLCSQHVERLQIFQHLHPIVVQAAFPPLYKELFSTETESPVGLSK
Chain of human RORγt ligand binding domain (RORγt LBD) (P51449 other isoform, or with tags, fused parts or gaps): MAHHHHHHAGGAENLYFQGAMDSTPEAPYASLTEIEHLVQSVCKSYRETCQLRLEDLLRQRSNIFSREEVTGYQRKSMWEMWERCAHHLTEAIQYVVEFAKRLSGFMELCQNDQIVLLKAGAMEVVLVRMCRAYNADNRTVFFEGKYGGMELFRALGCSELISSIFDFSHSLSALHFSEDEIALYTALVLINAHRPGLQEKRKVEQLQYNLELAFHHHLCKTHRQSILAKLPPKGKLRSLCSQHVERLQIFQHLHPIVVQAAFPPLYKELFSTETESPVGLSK

One may read the pKd as the negative decadic logarithm of the Kd, by convention in mol/L. As a reminder, the pIC50 is the IC50 on a negative log10 scale, so that one unit is a factor of ten. In the case of `C[C@H]1CCCN1C(=O)c1nc(C(=O)NCC(C)(C)O)sc1-c1cnc(NC(C2CC2)C2CC2)cc1C(F)(F)F` [Example 139, (S)-5-(6-((Dicyclopropylmethyl)amino)-4-(trifluoromethyl)pyridin-3-yl)-N-(2-hydroxy-2-methylpropyl)-4-(2-methylpyrrolidine-1-carbonyl)thiazole-2-carboxamide], the pKd in assay [1] is 8.96. In addition, on full-length human RORγt (Conditions B or C), the “RORγt (FL) Reporter Assay B or C, % inhibition (value marked *)” value (from here on “RORγt … % inhibition (value marked *)”) is reported as 107* % and the pIC50 was 7.92.

What is called inhibition is the relative decrease from the control value, in per cent. As for `C[C@H]1CCCN1C(=O)c1nc(C(=O)NC2(CO)CCC2)sc1-c1cnc(NC(C)(C)C)cc1C(F)(F)F` [Example 262, 5-[6-(tert-Butylamino)-4-(trifluoromethyl)-3-pyridyl]-N-[1-(hydroxymethyl)cyclobutyl]-4-[(2S)-2-methylpyrrolidine-1-carbonyl]thiazole-2-carboxamide], the pKd in assay [1] is 8.80. For the same molecule, the inhibition at 3 µM on full-length human RORγt (setting [2]) worked out at 104%. The pIC50 on full-length human RORγt is 7.70.

`CC[C@H](Nc1cc(C(F)F)c(-c2sc(C(=O)N[C@H]3CC[C@H](O)C3)nc2C(=O)N2CC(F)(F)C[C@@H]2C)cn1)C(F)(F)F` [Example 416, 4-[(2S)-4,4-Difluoro-2-methyl-pyrrolidine-1-carbonyl]-5-[4-(difluoromethyl)-6-[[(1S)-1-(trifluoromethyl)propyl]amino]-3-pyridyl]-N-[(1S,3S)-3-hydroxycyclopentyl]thiazole-2-carboxamide]: the pKd in assay [1] is 9.37. In addition, the inhibition at 1 µM at full-length human RORγt (at 1 μM compound concentration, read-out: RORγt (FL) Reporter Assay B or C, % inhibition) was 89%. At full-length human RORγt, the pIC50 is 7.43.

Consider `C[C@H]1CCCN1C(=O)c1nc(C(=O)N[C@H]2C[C@H](O)C2)sc1-c1cnc(N[C@H](C2CC2)C(F)(F)F)cc1C(F)F` [Example 320, 5-(6-(((R)-1-Cyclopropyl-2,2,2-trifluoroethyl)amino)-4-(difluoromethyl)pyridin-3-yl)-N-((1r,3S)-3-hydroxycyclobutyl)-4-((S)-2-methylpyrrolidine-1-carbonyl)thiazole-2-carboxamide], for which the pKd in assay [1] is 8.42. Further, the inhibition at 3 µM on full-length human RORγt (setting [2]) turned out to be 98%. Further, the pIC50 on full-length human RORγt is 7.34.

For the molecule `CNC(=O)c1nc(C(=O)N2CCC[C@@H]2C)c(-c2cnc(NC(C)(C)C)cc2C(F)(F)F)s1` [Example 307, (S)-5-(6-(tert-Butylamino)-4-(trifluoromethyl)pyridin-3-yl)-N-methyl-4-(2-methylpyrrolidine-1-carbonyl)thiazole-2-carboxamide], the pKd in assay [1] is 7.37. Also, the inhibition at 3 µM at full-length human RORγt (setting [2]) turned out to be 102%. The pIC50 at full-length human RORγt was 6.82.

`C[C@H]1CC(F)(F)CN1C(=O)c1nc(C(=O)NCC(C)(C)O)sc1-c1cnc(NC2(C(F)(F)F)CCC2)cc1C(F)(F)F` [Example 100, (S)-4-(4,4-Difluoro-2-methylpyrrolidine-1-carbonyl)-N-(2-hydroxy-2-methylpropyl)-5-(4-(trifluoromethyl)-6-((1-(trifluoromethyl)cyclobutyl)amino)pyridin-3-yl)thiazole-2-carboxamide]: in assay [1], the pKd is 9.41. Moreover, at full-length human RORγt (Conditions B or C), the “RORγt … % inhibition (value marked *)” value is 108* % and the pIC50 is 7.85.

Regarding `C[C@H](Nc1cc(C(F)F)c(-c2sc(C(=O)N[C@@H]3COC[C@H]3O)nc2C(=O)N2CCC[C@@H]2C)cn1)C(F)(F)F` [Example 215, 5-(4-(Difluoromethyl)-6-(((1S)-2,2,2-trifluoro-1-methyl-ethyl)amino)-3-pyridyl)-N-((3R,4S)-4-hydroxytetrahydrofuran-3-yl)-4-((2S)-2-methylpyrrolidine-1-carbonyl)thiazole-2-carboxamide], in assay [1], the pKd was 7.92. Further, at full-length human RORγt (Conditions B or C), the “RORγt … % inhibition (value marked *)” value is given as 107* % and the pIC50 was 7.00.

The term IC50 denotes the concentration at which inhibition is half-maximal. High values mean lower potency, low ones higher potency. As for `CCC(C)(C)Nc1cc(C(F)(F)F)c(-c2sc(C(=O)NCC(C)(C)O)nc2C(=O)N2C3CCC2CC3)cn1` [Example 98, 4-((1s,4s)-7-Azabicyclo[2.2.1]heptane-7-carbonyl)-N-(2-hydroxy-2-methylpropyl)-5-(6-(tert-pentylamino)-4-(trifluoromethyl)pyridin-3-yl)thiazole-2-carboxamide], the pKd in assay [1] was 9.39. Also, the “RORγt … % inhibition (value marked *)” value at full-length human RORγt (Conditions B or C) was 110* %. This molecule registered an IC50 against full-length human RORγt (RORγt (FL) Reporter Assay B or C, IC50 (μM), Conditions B or C) of 0.0096 µM.

With `C[C@H](Nc1cc(C(F)F)c(-c2sc(C(=O)N[C@H](C)C(C)(C)O)nc2C(=O)N2CC(F)(F)C[C@@H]2C)cn1)C(F)(F)F` [Example 198], the pKd in assay [1] was 8.60. At full-length human RORγt (Conditions B or C), the “RORγt … % inhibition (value marked *)” value was 102* % and the pIC50 was 7.28.

In the case of `C[C@H](Nc1cc(C(F)F)c(-c2sc(C(=O)NC3CCC3O)nc2C(=O)N2CCC[C@@H]2C)cn1)C(F)(F)F` (stereo partly drawn) [Example 386, 5-(4-(Difluoromethyl)-6-(((S)-1,1,1-trifluoropropan-2-yl)amino)pyridin-3-yl)-N-(trans-2-hydroxycyclobutyl)-4-((S)-2-methylpyrrolidine-1-carbonyl)thiazole-2-carboxamide], the pKd in assay [1] is 8.03. Further, at full-length human RORγt (setting [2]), the inhibition at 3 µM worked out at 99%. In addition, the pIC50 at full-length human RORγt is 7.14.

For the molecule `C[C@H]1CCCN1C(=O)c1nc(C(=O)NCC(C)(C)O)sc1-c1cnc(NCC2CCC2)cc1C(F)F` [Example 301, (S)-5-(6-((Cyclobutylmethyl)amino)-4-(difluoromethyl)pyridine-3-yl)-N-(2-hydroxy-2-methylpropyl)-4-(2-methylpyrrolidine-1-carbonyl)thiazole-2-carboxamide], the pKd in assay [1] was 7.52. Further, the inhibition at 3 µM on full-length human RORγt (setting [2]) is 95%. Further, the pIC50 on full-length human RORγt was 7.08.

In the case of `O=C(N[C@H]1CCC[C@@H]1O)c1nc(C(=O)N2C3CCC2CC3)c(-c2cnc(N[C@@H](C3CC3)C(F)(F)F)cc2C(F)F)s1` [Example 451, 4-(7-Azabicyclo[2.2.1]heptane-7-carbonyl)-5-[6-[[(1S)-1-cyclopropyl-2,2,2-trifluoro-ethyl]amino]-4-(difluoromethyl)-3-pyridyl]-N-[(1S,2S)-2-hydroxycyclopentyl]thiazole-2-carboxamide], the negative logarithm of the Kd (pKd) in assay [1] was 9.54. For the same molecule, on full-length human RORγt (setting [2]), the inhibition at 3 µM stood at 99%. At full-length human RORγt, the pIC50 was 6.54.

As for `C[C@H]1CCCN1C(=O)c1nc(C(=O)NCC(C)(C)O)sc1-c1cnc(NC(C)(C)C)cc1C(F)F` [Example 265, 5-[6-(tert-Butylamino)-4-(difluoromethyl)-3-pyridyl]-N-(2-hydroxy-2-methyl-propyl)-4-[(2S)-2-methylpyrrolidine-1-carbonyl]thiazole-2-carboxamide], the pKd in assay [1] is 8.19. The inhibition at 3 µM on full-length human RORγt (setting [2]) came to 98%. Also, the pIC50 at full-length human RORγt is 7.12.

For `CC(C)(C)Nc1cc(C(F)F)c(-c2sc(C(=O)NC3CCS(=O)(=O)CC3)nc2C(=O)N2C3CCC2CC3)cn1` [Example 433, 4-((1s,4s)-7-Azabicyclo[2.2.1]heptane-7-carbonyl)-5-[6-(tert-butylamino)-4-(difluoromethyl)-3-pyridyl]-N-(1,1-dioxothian-4-yl)thiazole-2-carboxamide], in assay [1], the pKd is 8.92. In addition, the inhibition at 3 µM at full-length human RORγt (setting [2]) was 128%. In addition, the pIC50 on full-length human RORγt was 7.60.

As to `C[C@H]1CCCN1C(=O)c1nc(C(=O)NCC(C)(C)O)sc1-c1cnc(NC(C)(C)CC(F)(F)F)cc1C(F)F` [Example 296], the negative logarithm of the Kd (pKd) in assay [1] is 9.30. Besides, the inhibition at 3 µM at full-length human RORγt (setting [2]) came to 108%. In addition, the pIC50 on full-length human RORγt is 8.15.

Values taken from US10975068B2, “6-aminopyridin-3-yl thiazoles as modulators of RORγT” (Janssen Pharmaceutica NV, priority 2016, dated 2021).
